# Measurements taken from US20080161232A1, “C5a Receptor Antagonist” (JERINI AG, priority 2005, published 2008).
# Starred links: 1 amine or outer side, 2 acyl side, 3 side chain; linkers in the order of their positions; H or OH if unused. Non-standard residues stand in square brackets, D forms with d. Residues, ends and D or L forms follow the SMILES beside them. *: point of attachment. Phe(3-Cl) = N[C@@H](Cc1cccc(Cl)c1)C(=O)O; Phe(4-Cl) = N[C@@H](Cc1ccc(Cl)cc1)C(=O)O; Phe(4-F) = N[C@@H](Cc1ccc(F)cc1)C(=O)O; 1Nal = N[C@@H](Cc1cccc2ccccc12)C(=O)O; Bta = N[C@@H](Cc1csc2ccccc12)C(=O)O; d(hCha) = N[C@H](CCC1CCCCC1)C(=O)O; Hydrocinnamoyl = O=C(CCc1ccccc1)*; Hyp = O=C(O)[C@@H]1C[C@@H](O)CN1; Tic = O=C(O)[C@@H]1Cc2ccccc2CN1; 2Thi = N[C@@H](Cc1cccs1)C(=O)O; dCha = N[C@H](CC1CCCCC1)C(=O)O; dChg = N[C@@H](C(=O)O)C1CCCCC1; Butoxycarbonyl = CCCCOC(=O)*; Phg = N[C@H](C(=O)O)c1ccccc1; Pip = O=C(O)[C@@H]1CCCCN1; Orn = NCCC[C@H](N)C(=O)O; Aze = O=C(O)[C@@H]1CCN1; CO = O=C([*:1])[*:2]; NHPh = c1ccc(N*)cc1; Ms = CS(=O)(=O)*
# Biological target: T1, human C5aR(CD88) (Homo sapiens, UniProt P21730)
# T1 construct: expressed in transfected cells; host or cells: rat basophilic leukemia cells (RBL)
# T1 sequence (P21730 1-350): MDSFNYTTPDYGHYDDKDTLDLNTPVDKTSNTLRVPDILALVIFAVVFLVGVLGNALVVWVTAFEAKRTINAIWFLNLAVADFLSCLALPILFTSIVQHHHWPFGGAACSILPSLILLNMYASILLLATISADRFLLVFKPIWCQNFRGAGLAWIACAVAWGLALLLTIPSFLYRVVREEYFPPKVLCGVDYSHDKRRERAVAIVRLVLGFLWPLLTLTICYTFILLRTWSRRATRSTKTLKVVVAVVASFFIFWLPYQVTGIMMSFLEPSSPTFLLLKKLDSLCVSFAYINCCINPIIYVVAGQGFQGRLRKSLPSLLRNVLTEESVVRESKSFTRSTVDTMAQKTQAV
# Assay: Determination of the IC50 value in an enzyme release assay (functional assay, antagonistic activity)
# Assay type: cell-based
# Settings: antagonistic activity; IC50 group in enzyme release assay, RBL cells expressing human C5aR(CD88); read-out: activity (group)
row,SMILES,IC50 [nM]
1,"CC(=O)N[C@@H](Cc1ccccc1)C(=O)N[C@@H](CCCN)C(=O)N1CC[C@H]1C(=O)N[C@H](CC1CCCCC1)C(=O)N[C@@H](Cc1ccc(Cl)cc1)C(=O)N[C@@H](Cc1ccccc1)C(N)=O [Compound 81, Ac-Phe-Orn-Aze-cha-Pcf-Phe-NH2] (Ac-F[Orn][Aze][dCha][Phe(4-Cl)]F-NH2)",200 to 2000
2,"NCCC[C@H](NC(=O)[C@H](Cc1ccccc1)NC(=O)Nc1ccccc1)C(=O)N1CCC[C@H]1C(=O)N[C@H](CC1CCCCC1)C(=O)N[C@@H](Cc1c[nH]c2ccccc12)C(=O)N[C@@H](Cc1ccccc1)C(N)=O [Compound 85, Ph-NH—CO-Phe-Orn-Pro-cha-Trp-Phe-NH2] ({NHPh-CO}-F[Orn]P[dCha]WF-NH2)",50 to 200
3,"CCCCOC(=O)N[C@@H](Cc1ccccc1)C(=O)N[C@@H](CCCN)C(=O)N1CCC[C@H]1C(=O)N[C@H](CC1CCCCC1)C(=O)N[C@@H](Cc1c[nH]c2ccccc12)C(=O)N[C@@H](Cc1ccccc1)C(N)=O [Compound 86, Bu-O—CO-Phe-Orn-Pro-cha-Trp-Phe-NH2] (Butoxycarbonyl-F[Orn]P[dCha]WF-NH2)",200 to 2000
4,"CC(=O)N[C@@H](Cc1ccccc1)C(=O)N[C@@H](CCC(N)=O)C(=O)N1CCC[C@H]1C(=O)N[C@H](CC1CCCCC1)C(=O)N[C@@H](Cc1c[nH]c2ccccc12)C(=O)N[C@@H](Cc1ccccc1)C(N)=O [Compound 89, Ac-Phe-Gln-Pro-cha-Trp-Phe-NH2] (Ac-FQP[dCha]WF-NH2)",200 to 2000
5,"CC(=O)N[C@@H](Cc1ccccc1)C(=O)N[C@@H](CO)C(=O)N1CCC[C@H]1C(=O)N[C@H](CC1CCCCC1)C(=O)N[C@@H](Cc1c[nH]c2ccccc12)C(=O)N[C@@H](Cc1ccccc1)C(N)=O [Compound 90, Ac-Phe-Ser-Pro-cha-Trp-Phe-NH2] (Ac-FSP[dCha]WF-NH2)",200 to 2000
6,"CC(=O)N[C@@H](Cc1ccccc1)C(=O)N[C@@H](CCC(=O)O)C(=O)N1CCC[C@H]1C(=O)N[C@H](CC1CCCCC1)C(=O)N[C@@H](Cc1c[nH]c2ccccc12)C(=O)N[C@@H](Cc1ccccc1)C(N)=O [Compound 91, Ac-Phe-Glu-Pro-cha-Trp-Phe-NH2] (Ac-FEP[dCha]WF-NH2)",200 to 2000
7,"CC(=O)N[C@@H](Cc1ccccc1)C(=O)N[C@@H](CCCN)C(=O)N1CCCC[C@H]1C(=O)N[C@H](CC1CCCCC1)C(=O)N[C@@H](Cc1c[nH]c2ccccc12)C(=O)N[C@@H](Cc1ccccc1)C(N)=O [Compound 92, Ac-Phe-Orn-Pip-cha-Trp-Phe-NH2] (Ac-F[Orn][Pip][dCha]WF-NH2)",50 to 200
8,"CC(=O)N[C@@H](Cc1ccccc1)C(=O)N[C@@H](CCCN)C(=O)N1C[C@H](O)C[C@H]1C(=O)N[C@H](CC1CCCCC1)C(=O)N[C@@H](Cc1c[nH]c2ccccc12)C(=O)N[C@@H](Cc1ccccc1)C(N)=O [Compound 93, Ac-Phe-Orn-Hyp-cha-Trp-Phe-NH2] (Ac-F[Orn][Hyp][dCha]WF-NH2)",200 to 2000
9,"CNC(=O)[C@H](Cc1ccccc1)NC(=O)[C@H](Cc1csc2ccccc12)NC(=O)[C@@H](CC1CCCCC1)NC(=O)[C@@H]1CCN1C(=O)[C@H](CCCN)NC(=O)[C@H](Cc1ccccc1)NC(C)=O [Compound 95, Ac-Phe-Orn-Aze-cha-Bta-Phe-NH—Me] (Ac-F[Orn][Aze][dCha][Bta]F-NHMe)",200 to 2000
10,"CC(=O)N[C@@H](Cc1ccccc1)C(=O)N[C@@H](CCCNC(=N)N)C(=O)N1CCC[C@H]1C(=O)N[C@H](CC1CCCCC1)C(=O)N[C@@H](Cc1c[nH]c2ccccc12)C(=O)N[C@@H](Cc1ccccc1)C(N)=O [Compound 104, Ac-Phe-Arg-Pro-cha-Trp-Phe-NH2] (Ac-FRP[dCha]WF-NH2)",50 to 200
11,"NCCC[C@H](NC(=O)CCc1ccccc1)C(=O)N1CC[C@H]1C(=O)N[C@H](CC1CCCCC1)C(=O)N[C@@H](Cc1csc2ccccc12)C(=O)N[C@@H](Cc1ccccc1)C(N)=O [Compound 106, 3PP-Orn-Aze-cha-Bta-Phe-NH2] (Hydrocinnamoyl-[Orn][Aze][dCha][Bta]F-NH2)",50 to 200
12,"CC(=O)N[C@@H](Cc1ccccc1)C(=O)N[C@@H](CCCN)C(=O)N1Cc2ccccc2C[C@H]1C(=O)N[C@H](CC1CCCCC1)C(=O)N[C@@H](Cc1c[nH]c2ccccc12)C(=O)N[C@@H](Cc1ccccc1)C(N)=O [Compound 107, Ac-Phe-Orn-Tic-cha-Trp-Phe-NH2] (Ac-F[Orn][Tic][dCha]WF-NH2)",50 to 200
13,"CC(=O)N[C@@H](Cc1ccccc1)C(=O)N[C@@H](CCCN)C(=O)N1CCC[C@H]1C(=O)N[C@@H](C(=O)N[C@@H](Cc1c[nH]c2ccccc12)C(=O)N[C@@H](Cc1ccccc1)C(N)=O)C1CCCCC1 [Compound 109, Ac-Phe-Orn-Pro-chg-Trp-Phe-NH2] (Ac-F[Orn]P[dChg]WF-NH2)",50 to 200
14,"CC(=O)N[C@@H](Cc1ccccc1)C(=O)N[C@@H](CCCN)C(=O)N1CCC[C@H]1C(=O)N[C@H](CC1CCCCC1)C(=O)N[C@@H](Cc1c[nH]c2ccccc12)C(=O)N[C@H](C(N)=O)c1ccccc1 [Compound 111, Ac-Phe-Orn-Pro-cha-Trp-Phg-NH2] (Ac-F[Orn]P[dCha]W[Phg]-NH2)",200 to 2000
15,"CC(=O)N[C@@H](Cc1ccccc1)C(=O)N[C@@H](Cc1c[nH]c2ccccc12)C(=O)N1CCC[C@H]1C(=O)N[C@H](CC1CCCCC1)C(=O)N[C@@H](Cc1csc2ccccc12)C(=O)N[C@@H](Cc1ccccc1)C(N)=O [Compound 113, Ac-Phe-Trp-Pro-cha-Bta-Phe-NH2] (Ac-FWP[dCha][Bta]F-NH2)",50 to 200
16,"CC(=O)N[C@@H](Cc1ccccc1)C(=O)N[C@@H](CCCN)C(=O)N1CCCC[C@H]1C(=O)N[C@H](CC1CCCCC1)C(=O)N[C@@H](Cc1c[nH]c2ccccc12)C(=O)N[C@@H](Cc1ccccc1)C(=O)O [Compound 115, Ac-Phe-Orn-Pip-cha-Trp-Phe-OH] (Ac-F[Orn][Pip][dCha]WF-OH)",200 to 2000
17,"CC(=O)N[C@@H](Cc1ccccc1)C(=O)N[C@@H](CCCN)C(=O)N1Cc2ccccc2C[C@H]1C(=O)N[C@H](CC1CCCCC1)C(=O)N[C@@H](Cc1c[nH]c2ccccc12)C(=O)N[C@@H](Cc1ccccc1)C(=O)O [Compound 116, Ac-Phe-Orn-Tic-cha-Trp-Phe-OH] (Ac-F[Orn][Tic][dCha]WF-OH)",200 to 2000

# The remaining lines, values ahead:
row,IC50 [nM],SMILES
1,50 to 200,"CC(=O)N[C@@H](Cc1ccccc1)C(=O)N[C@@H](CCCN)C(=O)N1CCC[C@H]1C(=O)N[C@H](CC1CCCCC1)C(=O)N[C@@H](Cc1c[nH]c2ccccc12)C(=O)N[C@@H](Cc1cccs1)C(N)=O [Compound 80, Ac-Phe-Orn-Pro-cha-Trp-Thi-NH2] (Ac-F[Orn]P[dCha]W[2Thi]-NH2)"
2,50 to 200,"CC(=O)NCCC[C@H](NC(=O)[C@H](Cc1ccccc1)NC(C)=O)C(=O)N1CCC[C@H]1C(=O)N[C@H](CC1CCCCC1)C(=O)N[C@@H](Cc1c[nH]c2ccccc12)C(=O)N[C@@H](Cc1ccccc1)C(N)=O [Compound 82, Ac-Phe-Orn(Ac)-Pro-cha-Trp-Phe-NH2] (Ac-F[Orn](Ac)P[dCha]WF-NH2)"
3,50 to 200,"CC(=O)N[C@@H](Cc1ccccc1)C(=O)N[C@@H](CCCCN)C(=O)N1CCC[C@H]1C(=O)N[C@H](CC1CCCCC1)C(=O)N[C@@H](Cc1c[nH]c2ccccc12)C(=O)N[C@@H](Cc1ccccc1)C(N)=O [Compound 87, Ac-Phe-Lys-Pro-cha-Trp-Phe-NH2] (Ac-FKP[dCha]WF-NH2)"
4,20 to 50,"CC(=O)N[C@@H](Cc1ccccc1)C(=O)N[C@@H](CCCN)C(=O)N1CCC[C@H]1C(=O)N[C@H](CC1CCCCC1)C(=O)N[C@@H](Cc1c[nH]c2ccccc12)C(=O)N[C@@H](Cc1cccc2ccccc12)C(N)=O [Compound 94, Ac-Phe-Orn-Pro-cha-Trp-1Ni—NH2] (Ac-F[Orn]P[dCha]W[1Nal]-NH2)"
5,20 to 50,"CS(=O)(=O)N[C@@H](Cc1ccccc1)C(=O)N[C@@H](CCCN)C(=O)N1CC[C@H]1C(=O)N[C@H](CC1CCCCC1)C(=O)N[C@@H](Cc1csc2ccccc12)C(=O)N[C@@H](Cc1ccccc1)C(N)=O [Compound 96, CH3—SO2-Phe-Orn-Aze-cha-Bta-Phe-NH2] (Ms-F[Orn][Aze][dCha][Bta]F-NH2)"
6,50 to 200,"CC(=O)N[C@@H](Cc1ccccc1)C(=O)N[C@@H](CCCN)C(=O)N1CC[C@H]1C(=O)N[C@H](CC1CCCCC1)C(=O)N[C@@H](Cc1ccc(F)cc1)C(=O)N[C@@H](Cc1ccccc1)C(N)=O [Compound 99, Ac-Phe-Orn-Aze-cha-Pff-Phe-NH2] (Ac-F[Orn][Aze][dCha][Phe(4-F)]F-NH2)"
7,50 to 200,"CC(=O)N[C@@H](Cc1ccccc1)C(=O)N[C@@H](CCCN)C(=O)N1CC[C@H]1C(=O)N[C@H](CC1CCCCC1)C(=O)N[C@@H](Cc1cccc(Cl)c1)C(=O)N[C@@H](Cc1ccccc1)C(N)=O [Compound 100, Ac-Phe-Orn-Aze-cha-Mcf-Phe-NH2] (Ac-F[Orn][Aze][dCha][Phe(3-Cl)]F-NH2)"
8,20 to 50,"CC(=O)N[C@@H](Cc1ccccc1)C(=O)N[C@@H](CCCN)C(=O)N[C@@H](CO)C(=O)N[C@H](CC1CCCCC1)C(=O)N[C@@H](Cc1c[nH]c2ccccc12)C(=O)N[C@@H](Cc1ccccc1)C(N)=O [Compound 108, Ac-Phe-Orn-Ser-cha-Trp-Phe-NH2] (Ac-F[Orn]S[dCha]WF-NH2)"
9,20 to 50,"CC(=O)N[C@@H](Cc1ccccc1)C(=O)N[C@@H](CCCN)C(=O)N1CCC[C@H]1C(=O)N[C@H](CCC1CCCCC1)C(=O)N[C@@H](Cc1c[nH]c2ccccc12)C(=O)N[C@@H](Cc1ccccc1)C(N)=O [Compound 110, Ac-Phe-Orn-Pro-hch-Trp-Phe-NH2] (Ac-F[Orn]P[d(hCha)]WF-NH2)"
10,20 to 50,"CC(=O)N[C@@H](Cc1ccccc1)C(=O)N[C@@H](Cc1csc2ccccc12)C(=O)N1CC[C@H]1C(=O)N[C@H](CC1CCCCC1)C(=O)N[C@@H](Cc1csc2ccccc12)C(=O)N[C@@H](Cc1ccccc1)C(N)=O [Compound 112, Ac-Phe-Bta-Aze-cha-Bta-Phe-NH2] (Ac-F[Bta][Aze][dCha][Bta]F-NH2)"
